Test results published in ChEMBL document CHEMBL3865840, “Minimizing CYP2C9 Inhibition of Exposed-Pyridine NAMPT (Nicotinamide Phosphoribosyltransferase) Inhibitors” (J Med Chem, 2016).

How the values were obtained:
[1] = Apparent permeability from apical to basolateral side in MDCK cells at 10 uM by LC/MS/MS analysis; assay type: ADME, cell-based, Canis lupus familiaris; conditions: dog
[2] = Apparent permeability from basolateral to apical side in MDCK cells at 10 uM by LC/MS/MS analysis; assay type: ADME, cell-based, Canis lupus familiaris; conditions: dog
Cytochrome P450 2C9 = Cytochrome P450 2C9 (Homo sapiens, UniProt P11712)
[3] = Octanol-aqueous phosphate buffer distribution coefficient, log D of the compound at pH 7.4 after 1 hr by LC/MS/MS analysis; assay type: physicochemical
Cytochrome P450 2C19 = Cytochrome P450 2C19 (Homo sapiens, UniProt P33261)
Cytochrome P450 2D6 = Cytochrome P450 2D6 (Homo sapiens, UniProt P10635)
Cytochrome P450 3A4 [4] = target: T1, Cytochrome P450 3A4 (Homo sapiens, UniProt P08684); experiment: Time dependent inhibition of CYP3A4 in human liver microsomes assessed as substrate AUC shift using testosterone as substrate; assay type: ADME; design: scale not given: the % may be the effect or the level left
Cytochrome P450 3A4 [5] = target: T1, Cytochrome P450 3A4; experiment: Time dependent inhibition of CYP3A4 in human liver microsomes assessed as substrate AUC shift using midazolam as substrate; assay type: ADME; design: scale not given: the % may be the effect or the level left
Cytochrome P450 1A2 = target: T2, Cytochrome P450 1A2 (Homo sapiens, UniProt P05177)
T2 sequence (P05177 whole entry): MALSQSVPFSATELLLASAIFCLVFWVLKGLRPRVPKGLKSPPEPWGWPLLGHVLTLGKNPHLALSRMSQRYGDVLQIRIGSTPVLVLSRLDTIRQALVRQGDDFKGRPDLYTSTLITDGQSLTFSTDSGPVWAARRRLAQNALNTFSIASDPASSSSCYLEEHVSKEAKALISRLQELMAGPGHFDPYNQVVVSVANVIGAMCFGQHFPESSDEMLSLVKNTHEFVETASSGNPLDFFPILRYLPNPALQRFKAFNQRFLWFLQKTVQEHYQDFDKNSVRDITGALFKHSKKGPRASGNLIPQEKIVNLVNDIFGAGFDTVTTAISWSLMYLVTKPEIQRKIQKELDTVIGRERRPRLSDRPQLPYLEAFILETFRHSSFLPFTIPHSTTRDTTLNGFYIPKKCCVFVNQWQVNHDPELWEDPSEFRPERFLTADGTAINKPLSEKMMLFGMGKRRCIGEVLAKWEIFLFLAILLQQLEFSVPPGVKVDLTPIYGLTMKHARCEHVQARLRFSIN

Chain of Cytochrome P450 2C9 (P11712 whole entry): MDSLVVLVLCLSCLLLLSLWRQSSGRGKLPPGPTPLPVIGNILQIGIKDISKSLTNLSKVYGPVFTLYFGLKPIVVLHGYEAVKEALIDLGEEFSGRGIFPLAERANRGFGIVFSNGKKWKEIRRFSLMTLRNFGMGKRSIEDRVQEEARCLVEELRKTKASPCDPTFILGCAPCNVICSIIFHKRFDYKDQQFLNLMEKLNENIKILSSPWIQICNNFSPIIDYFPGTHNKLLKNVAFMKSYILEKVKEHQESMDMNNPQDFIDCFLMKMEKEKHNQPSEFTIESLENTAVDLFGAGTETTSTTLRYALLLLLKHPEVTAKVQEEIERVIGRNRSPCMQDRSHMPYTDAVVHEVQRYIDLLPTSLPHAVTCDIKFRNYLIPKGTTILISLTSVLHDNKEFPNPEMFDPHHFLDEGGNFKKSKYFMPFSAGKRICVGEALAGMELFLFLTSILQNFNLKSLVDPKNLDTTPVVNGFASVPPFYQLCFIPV
T1 sequence (P08684 whole entry): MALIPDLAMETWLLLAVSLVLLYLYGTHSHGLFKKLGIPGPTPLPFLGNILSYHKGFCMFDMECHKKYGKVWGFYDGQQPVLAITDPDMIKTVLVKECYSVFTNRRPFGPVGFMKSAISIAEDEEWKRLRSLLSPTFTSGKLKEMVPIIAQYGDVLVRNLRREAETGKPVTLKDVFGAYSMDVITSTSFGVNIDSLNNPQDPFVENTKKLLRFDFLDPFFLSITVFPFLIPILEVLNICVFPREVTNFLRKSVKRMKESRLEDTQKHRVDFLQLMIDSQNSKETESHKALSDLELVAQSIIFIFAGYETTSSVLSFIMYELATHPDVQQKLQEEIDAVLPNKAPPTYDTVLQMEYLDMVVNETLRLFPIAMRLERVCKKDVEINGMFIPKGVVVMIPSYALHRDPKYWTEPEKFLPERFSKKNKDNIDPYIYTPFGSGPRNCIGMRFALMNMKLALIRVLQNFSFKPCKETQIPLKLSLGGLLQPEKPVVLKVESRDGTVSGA
Chain of Cytochrome P450 2C19 (P33261 whole entry): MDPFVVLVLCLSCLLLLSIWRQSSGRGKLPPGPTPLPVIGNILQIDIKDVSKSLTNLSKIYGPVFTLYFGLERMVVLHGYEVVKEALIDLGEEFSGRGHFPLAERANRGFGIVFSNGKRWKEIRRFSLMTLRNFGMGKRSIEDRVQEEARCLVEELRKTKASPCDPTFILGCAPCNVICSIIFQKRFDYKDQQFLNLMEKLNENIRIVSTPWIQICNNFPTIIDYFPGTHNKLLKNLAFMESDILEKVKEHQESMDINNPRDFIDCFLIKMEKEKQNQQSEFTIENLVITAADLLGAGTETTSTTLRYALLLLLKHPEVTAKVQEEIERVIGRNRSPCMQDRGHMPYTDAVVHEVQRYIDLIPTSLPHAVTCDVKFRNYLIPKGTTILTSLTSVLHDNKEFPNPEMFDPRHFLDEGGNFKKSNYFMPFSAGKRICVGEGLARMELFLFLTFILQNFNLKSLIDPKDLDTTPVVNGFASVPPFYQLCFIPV
Chain of Cytochrome P450 2D6 (P10635 whole entry): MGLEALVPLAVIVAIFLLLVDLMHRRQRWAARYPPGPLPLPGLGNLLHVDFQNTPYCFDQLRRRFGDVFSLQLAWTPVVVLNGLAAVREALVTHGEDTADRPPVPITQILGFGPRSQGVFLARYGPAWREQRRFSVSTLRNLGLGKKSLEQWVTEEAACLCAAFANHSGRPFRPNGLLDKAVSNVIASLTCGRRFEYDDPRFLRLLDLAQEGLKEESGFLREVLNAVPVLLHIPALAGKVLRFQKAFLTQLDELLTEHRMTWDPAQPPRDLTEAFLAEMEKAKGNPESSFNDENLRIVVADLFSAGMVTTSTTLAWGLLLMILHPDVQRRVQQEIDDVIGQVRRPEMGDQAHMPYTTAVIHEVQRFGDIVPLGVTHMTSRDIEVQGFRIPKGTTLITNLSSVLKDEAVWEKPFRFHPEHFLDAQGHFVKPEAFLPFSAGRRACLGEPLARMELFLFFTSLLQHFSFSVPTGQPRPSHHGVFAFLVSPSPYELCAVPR

Structure (SMILES)	Papp A→B at 10 µM [1] [×10⁻⁶ cm/s]	Papp B→A at 10 µM [2] [×10⁻⁶ cm/s]	IC50 (Cytochrome P450 2C9) [µM]	other results
CC(C)OC(=O)N1CCC2(CC1)CC2CNC(=O)N1Cc2ccncc2C1 (racemic)	13	14	> 10	–
CC(C)CNC(=O)c1cc2cnccc2[nH]1	–	–	> 10	logD at 1 h [3]: 1.7
CC1(O)CC(CC(=O)N2CCC3(CC2)CC3CNC(=O)N2Cc3ccncc3C2)C1 (racemic)	0.2	1	–	–
Cc1ccc(CNC(=O)Nc2ccc(S(=O)(=O)c3ccccc3)cc2)cn1	–	–	–	logD at 1 h [3]: 2.4
CC(C)(C)NC(=O)N1CCC2(CC1)CC2CNC(=O)N1Cc2ccncc2C1 (racemic)	–	–	> 10	–
O=C(NCc1ccccc1)c1cc2cnccc2[nH]1	–	–	> 10	logD at 1 h [3]: 2.2
CC(C)(C)OC(=O)N1CCC2(CC1)CC2CNC(=O)c1cc2cnccc2[nH]1 (racemic)	15	14	> 10	–
CC(C)(C)CC(=O)N1CCC2(CC1)CC2CNC(=O)N1Cc2ccncc2C1 (racemic)	9.2	13	> 10	–
O=C(CCC1CCOCC1)N1CCC2(CC1)CC2CNC(=O)N1Cc2ccncc2C1 (racemic)	1.6	11	> 10	–
CC(C)(C)OC(=O)N1CCC2(CC1)CC2CNC(=O)c1cc2ccncc2s1 (racemic)	–	–	7.2	–
CC(C)(C)OC(=O)N1CCC2(CC1)CC2CNC(=O)c1cnc2nccn2c1 (racemic)	–	–	> 10	–
CN(C)C(=O)c1cccc(COc2ccc(CNC(=O)c3cc4cnccc4[nH]3)cc2)c1	–	–	0.4	logD at 1 h [3]: 2.5
O=C(NCC1CCCCC1)c1cc2cnccc2[nH]1	–	–	> 10	logD at 1 h [3]: 3.1
CC(C)CC(=O)N1CCC2(CC1)CC2CNC(=O)N1Cc2ccncc2C1 (racemic)	7.3	14	> 10	–
Nc1cc2cc(C(=O)NCc3ccc(S(=O)(=O)c4ccccc4)cc3)oc2cn1	–	–	3.9	–
CC(C)(C)OC(=O)N1CCC2(CCC(CNC(=O)c3cc4cnccc4[nH]3)OC2)CC1 (racemic)	–	–	> 10	–
O=C(NCc1ccc(S(=O)(=O)C2CCCCC2)cc1)N1Cc2ccncc2C1	–	–	–	logD at 1 h [3]: 2
O=C(NCc1ccc(NS(=O)(=O)C2CCCC2)cc1)c1cc2cnccc2[nH]1	–	–	0.36	logD at 1 h [3]: 2.5
Cc1nc(C)c(C(=O)N2CCC3(CC2)CC3CNC(=O)N2Cc3ccncc3C2)o1 (racemic)	1.4	9	–	–
O=C(NCc1cccnc1)Nc1ccc(S(=O)(=O)c2ccccc2)cc1	3.1	11	–	logD at 1 h [3]: 2.7
Nc1cc2c(cn1)CN(C(=O)NCc1ccc(S(=O)(=O)c3ccccc3)cc1)C2	–	–	> 10	–
O=C(NCc1ccc([S@@+]([O-])c2cc(F)cc(F)c2)cn1)c1cc2ccncc2o1	21	9	–	logD at 1 h [3]: 2
O=C(/C=C/c1cccnc1)NCCCCC1CCN(C(=O)c2ccccc2)CC1 [DAPORINAD]	–	–	3.6	IC50 (Cytochrome P450 2C19): > 10 µM; IC50 (Cytochrome P450 2D6): > 10 µM
CC1(CC(=O)N2CCC3(CC2)CC3CNC(=O)N2Cc3ccncc3C2)COC1 (racemic)	1.4	4	> 10	–
Cc1nn(C)cc1C(=O)N1CCC2(CC1)CC2CNC(=O)N1Cc2ccncc2C1 (racemic)	0.2	1.1	–	–
CC(C)(C)OC(=O)N1CCC(CCNC(=O)c2cc3cnccc3[nH]2)CC1	–	–	> 10	–

Structure (SMILES)	Papp A→B at 10 µM [1] [×10⁻⁶ cm/s]	Papp B→A at 10 µM [2] [×10⁻⁶ cm/s]	IC50 (Cytochrome P450 2C9) [µM]	other results
O=C(CC1CCOCC1)N1CCC2(CC1)CC2CNC(=O)N1Cc2ccncc2C1 (racemic)	1.4	7	–	–
CC1(CC(=O)N2CCC3(CC2)CC3CNC(=O)N2Cc3ccncc3C2)CCOCC1 (racemic)	1	9.1	> 10	–
Nc1cc2[nH]c(C(=O)NCc3ccc(S(=O)(=O)c4cc(F)cc(F)c4)cc3)cc2cn1	–	–	> 10	Activity (Cytochrome P450 3A4 [4]): 69%; Activity (Cytochrome P450 3A4 [5]): 83%
Cc1nc(C)c(C(=O)N2CCC3(CC2)CC3CNC(=O)N2Cc3ccncc3C2)s1 (racemic)	1.4	11	–	–
NS(=O)(=O)c1ccc(CNC(=O)c2cc3cnccc3[nH]2)cc1	–	–	0.34	logD at 1 h [3]: 0.6
O=C(NCC1CC12CCN(CCc1ccccc1)CC2)N1Cc2ccncc2C1 (racemic)	–	–	> 10	–
O=C(NCc1ccc(S(=O)(=O)c2cc(F)cc(F)c2)cn1)c1cc2ccncc2o1	–	–	–	logD at 1 h [3]: 2.6
CC1(OC(=O)N2CCC3(CC2)CC3CNC(=O)N2Cc3ccncc3C2)CCC1 (racemic)	15	12	> 10	–
N#CN=C(NCCCCCCOc1ccc(Cl)cc1)Nc1ccncc1 [CHS-828]	–	–	–	IC50 (Cytochrome P450 2C19): 0.63 µM; IC50 (Cytochrome P450 1A2): > 10 µM
O=C(NCc1ccc(C(=O)N2CCCC2)cc1)c1cc2cnccc2[nH]1	–	–	0.45	logD at 1 h [3]: 1.6
CC1(OC(=O)N2CCC3(CC2)CC3CNC(=O)N2Cc3ccncc3C2)COC1 (racemic)	11	16	> 10	–
CC(C)(C)OC(=O)N1CCCC(CCNC(=O)c2cc3cnccc3[nH]2)C1 (racemic)	–	–	3.4	–
[2H]C1([2H])c2ccncc2C([2H])([2H])N1C(=O)NCC1CC12CCN(C(=O)OC1(C)COC1)CC2 (racemic)	–	–	> 10	–
O=C(NCc1cccnc1)Nc1ccc(S(=O)(=O)N2CCC3(CCNC3)CC2)cc1	–	0.43	–	logD at 1 h [3]: < -0.5
CCOC(=O)N1CCC2(CC1)CC2CNC(=O)N1Cc2ccncc2C1 (racemic)	–	–	> 10	–
O=C(NCC1CC12CCN(C(=O)c1ccccc1)CC2)N1Cc2ccncc2C1 (racemic)	7.9	19	> 10	–
Cc1ccncc1C(=O)N1CCC2(CC1)CC2CNC(=O)N1Cc2ccncc2C1 (racemic)	0.3	2.7	–	–
Nc1ccc(CNC(=O)Nc2ccc(S(=O)(=O)c3ccccc3)cc2)cn1	3	5.5	–	logD at 1 h [3]: 2.7; Activity (Cytochrome P450 3A4 [4]): 45%; Activity (Cytochrome P450 3A4 [5]): 34%
Cc1nn(C)c(C)c1C(=O)N1CCC2(CC1)CC2CNC(=O)N1Cc2ccncc2C1 (racemic)	0.2	1.9	> 10	–
CC1(OC(=O)N2CCC3(CC2)C[C@H]3CNC(=O)N2Cc3ccncc3C2)COC1	11	15	–	–
CC(C)(C)OC(=O)N1CCC2(CC1)CC2CNC(=O)c1cc2ccncc2o1 (racemic)	16	15	> 10	–
CN1CCC(c2ccc(C(=O)N3CCC4(CC3)CC4CNC(=O)N3Cc4ccncc4C3)cc2)CC1 (racemic)	0.2	1	> 10	–
O=C(CCC(F)(F)F)N1CCC2(CC1)CC2CNC(=O)N1Cc2ccncc2C1 (racemic)	–	–	> 10	–
Cc1c(C(=O)N2CCC3(CC2)CC3CNC(=O)N2Cc3ccncc3C2)cnn1C (racemic)	0.3	2.6	–	–
CS(=O)(=O)c1ccc(CNC(=O)c2cc3cnccc3[nH]2)cc1	–	–	0.2	logD at 1 h [3]: 0.8
